Patent US20140045695A1, “Continuous Fiber Layer Comprising an Active Substance on the Basis of Bio-polymers, the Use Thereof, and Method for the Production Thereof” (priority 2008, published 2014)
In brackets after ≈: the same amount, converted by molar mass. Where two headings read alike, the source gives them in different places.

What was measured:
[1] = Crystallinity studies by x-ray diffraction (WAXS in transmission); assay type: physicochemical
Source text: FIG. 2 crystallinity studies (WAXS in transmission) of the GGE active ingredient in the C16 spider silk protein formulations obtained by electrospinning compared to the pure substances (GGE or C16 powder);
FIG. 6 crystallinity studies (WAXS in transmission) of the clotrimazole active ingredient in the C16 spider silk protein formulations obtained by electrospinning compared to pure clotrimazole;
FIG. 9 crystallinity studies (WAXS in transmission) of the metazachlor active ingredient in the C16 spider silk protein formulations obtained by electrospinning compared to pure metazachlor;
FIG. 12 crystallinity studies (WAXS in transmission) of the Uvinul A+ active ingredient in the C16 spider silk protein formulations obtained by electrospinning compared to Uvinul A+ pure substance;
FIG. 16 crystallinity studies (WAXS in transmission) of the Uvinul A+ active ingredient in the R16 protein nonwoven (A) and S16 protein nonwoven (B) obtained by electrospinning compared to pure Uvinul A+;

[2] = cited from earlier work

SMILES: Cc1cccc(C)c1N(Cn1cccn1)C(=O)CCl [metazachlor]
- crystallinity of the active ingredient in x-ray diffraction [1]: significant crystalline proportions

SMILES: Clc1ccccc1C(c1ccccc1)(c1ccccc1)n1ccnc1 [Clotrimazole]
- Solubility in water ([2]; 25° C.): <0.01 g/L

SMILES: NC(=O)N1c2ccccc2C=Cc2ccccc21 [Carbamazipine]
- Solubility in water ([2]; RT): 0.9451 g/L (≈ 4000 µM)
